“Also recorded” adds a separate entry of the source. Read-outs that look alike come from different tables or passages of the source.
Experiments:
[1] = target: T1, CbpA (Acetivibrio thermocellus (Clostridium thermocellum), UniProt A3DCF2); assay: NMR titration (1H-15N HSQC) of 15N-labelled CbpA with saccharides; type: binding; conditions: 298 K, pH 6.5, protein:substrate up to 1:20
Procedure: (§1) NMR titration experiments were performed at 298 K on a Bruker Avance III 600 MHz NMR spectrometer equipped with a cryoprobe. The ^15N-labeled protein samples contained 0.1 or 0.2 mM sugar-binding protein in 20 mM Bis-Tris (pH 6.5), 100 mM KCl, 0.02% (wt/vol) dextran sulfate sodium, and 90% H2O/10% D2O. The concentrations of carbohydrate substrates were 10, 20, or 100 mM in the same buffer. For the titration, the substrates were gradually added to the labeled proteins until the ratio of their concentrations reached 1:20. A series of two-dimensional ^1H-^15N HSQC spectra were recorded at different protein-substrate ratios during the titration.

[2] = target: T2, CbpB (Acetivibrio thermocellus (Clostridium thermocellum), UniProt A3DE73, V209A/V350L); assay: ITC titration of carbohydrate ligands with CbpB; type: binding
T2 sequence (A3DE73 entry or part of it V209A/V350L): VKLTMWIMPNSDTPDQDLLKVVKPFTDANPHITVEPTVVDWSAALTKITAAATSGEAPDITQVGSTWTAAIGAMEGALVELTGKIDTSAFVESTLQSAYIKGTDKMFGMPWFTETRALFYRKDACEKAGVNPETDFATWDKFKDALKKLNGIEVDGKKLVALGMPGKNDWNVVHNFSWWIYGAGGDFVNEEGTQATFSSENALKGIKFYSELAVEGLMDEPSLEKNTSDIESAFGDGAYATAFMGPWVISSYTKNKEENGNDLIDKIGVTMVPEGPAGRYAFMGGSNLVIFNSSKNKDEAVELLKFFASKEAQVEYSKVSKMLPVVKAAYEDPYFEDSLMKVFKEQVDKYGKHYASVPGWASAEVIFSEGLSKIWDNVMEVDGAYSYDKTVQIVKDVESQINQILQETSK
Procedure: (§2) Isothermal titration calorimetry measurements were performed at 30°C using a MicroCal PEAQ-ITC (Malvern Panalytical Ltd., Malvern, United Kingdom). Protein samples were dialyzed against buffer containing 50 mM Tris-HCl (pH 8.0) and 100 mM NaCl. Carbohydrate-ligand solutions of cellodextrins, glucose, and xylose were prepared using the same buffer as for protein dialysis. The sample cell was loaded with 280 μL of protein sample (~50 μM), and the reference cell contained distilled water. The syringe was filled with 50 μL of ligand (500 to 750 μM). Titrations were carried out by adding 0.8 μL of ligand for the first injection and 2 μL for the subsequent 19 injections, with stirring at 750 rpm. Binding parameters were determined by fitting the experimental binding isotherms using a single-site model.

[3] = test system: C. thermocellum cells; assay: Cell-associated cellulosome (cellulase) activity measurement; type: cell-based, Clostridium thermocellum; conditions: glucose+cellobiose medium vs glucose medium
Procedure: C. thermocellum cells were cultivated to the early exponential stage with various carbon sources. Cell suspensions (1.0 mL) were sampled and centrifuged at 15,000 × g for 10 min to separate supernatant from the pellet. Cell-associated cellulosome activity was measured in a 1.0-mL reaction volume containing the pellet and 15 mg Avicel as the substrate, using GS-2 medium as the reaction buffer. The concentration of reducing sugars was determined by the 3,5-dinitrosalicylic acid method after incubation at 55°C for 24 h unless otherwise stated. One unit of enzyme activity is defined as the amount of enzyme that releases 1 nmol reducing sugar (glucose equivalent) per min.

[4] = target: T2, CbpB; assay: NMR titration (1H-15N HSQC) of 15N-labelled CbpB with saccharides; type: binding; conditions: 298 K, pH 6.5, protein:substrate up to 1:20
Procedure: as §1

[5] = target: T1, CbpA; assay: ITC titration of carbohydrate ligands with CbpA; type: binding
Procedure: as §2

[6] = test system: CbpC; design: method as in PMID 18952792; conditions: cited from earlier work
[7] = test system: Lbp; design: method as in PMID 18952792; conditions: previous study; cited from earlier work
[8] = test system: CbpD; assay: ITC titration of carbohydrate ligands with CbpD; type: binding, Clostridium thermocellum; conditions: 30°C
Procedure: as §2

[9] = test system: CbpD; assay: NMR titration of 15N-labelled CbpD with saccharides; type: binding, Clostridium thermocellum; conditions: 298 K
Procedure: as §1

[10] = ITC, 30°C, 50 mM Tris-HCl pH 8.0, 100 mM NaCl, single-site model
[11] = ITC, 30°C, 50 mM Tris-HCl pH 8.0, 100 mM NaCl, single-site model, read-out: KD (dissociation constant)

T1 sequence (A3DCF2 entry or part of it): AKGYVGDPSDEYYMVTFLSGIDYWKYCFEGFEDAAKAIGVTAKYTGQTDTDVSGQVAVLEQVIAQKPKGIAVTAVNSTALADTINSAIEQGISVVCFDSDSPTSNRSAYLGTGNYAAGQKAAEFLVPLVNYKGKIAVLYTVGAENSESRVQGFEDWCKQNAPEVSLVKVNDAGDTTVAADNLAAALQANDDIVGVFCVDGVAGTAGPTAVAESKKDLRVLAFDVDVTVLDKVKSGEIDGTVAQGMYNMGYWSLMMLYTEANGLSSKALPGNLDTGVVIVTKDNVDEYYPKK

With `O=C[C@H](O)[C@@H](O)[C@H](O[C@@H]1O[C@H](CO)[C@@H](O)[C@H](O)[C@H]1O)[C@H](O)CO` [Cellobiose, cellobiose] the “binding to CbpA in NMR titration (HSQC peak shifts)” value [1] was “not”, the Kd [2] was 1890 ± 360 nM and the Ka ([2]; ITC, 30°C) was 5.29 ± 0.99 ×10^5 · M^−1. For the same compound, the TΔS ([2]; ITC, 30°C) was 4.66 kcal/mol, the ΔG ([2]; ITC, 30°C) was -7.93 kcal/mol and the “ΔH (change in enthalpy)” value ([2]; ITC, 30°C) was -3.27 ± 0.096 kcal/mol. The “N (number of binding site)” value [2, 10] was 1.03 ± 0.02, the “induction effect on cellulosome expression (cellulase activity)” value ([3]; wild-type cells, 5 g/L cellobiose) was “significant induction effect” and the “induction effect on cellulosome expression (cellulase activity)” value ([3]; ΔtransporterB and Δ2554 cells) was “no induction effect”. The “binding to CbpB in NMR titration (HSQC peak shifts)” value [4] was “can bind; also recorded: significant peak shifts”.

For `OC[C@H]1O[C@@H](O[C@H]2[C@H](O)[C@@H](O)[C@H](O[C@H]3[C@H](O)[C@@H](O)[C@H](O[C@H]4[C@H](O)[C@@H](O)[C@H](O[C@H]5[C@H](O)[C@@H](O)C(O)O[C@@H]5CO)O[C@@H]4CO)O[C@@H]3CO)O[C@@H]2CO)[C@H](O)[C@@H](O)[C@@H]1O` (some centres unmarked) [Cellopentaose, cellopentaose], the Ka ([2]; ITC, 30°C) was 14.9 ± 3.3 ×10^5 · M^−1, the TΔS ([2]; ITC, 30°C) was 11.3 kcal/mol and the ΔG ([2]; ITC, 30°C) was -8.58 kcal/mol. For the same compound, the “ΔH (change in enthalpy)” value ([2]; ITC, 30°C) was 2.75 ± 0.072 kcal/mol, the “N (number of binding site)” value [2, 10] was 1.02 ± 0.01 and the Kd [2, 11] was 670 ± 150 nM.

In the case of `OC[C@H]1O[C@@H](O[C@H]2[C@H](O)[C@@H](O)[C@H](O[C@H]3[C@H](O)[C@@H](O)[C@H](O[C@H]4[C@H](O)[C@@H](O)C(O)O[C@@H]4CO)O[C@@H]3CO)O[C@@H]2CO)[C@H](O)[C@@H](O)[C@@H]1O` (some centres unmarked) [Cellotetraose, cellotetraose], the Ka ([2]; ITC, 30°C) is reported as 17.8 ± 2.5 ×10^5 · M^−1, the TΔS ([2]; ITC, 30°C) is reported as 10.3 kcal/mol and the “interaction with CbpB in ITC, in words” value ([2]; ITC, 30°C) is reported as “highest binding affinity”. The ΔG ([2]; ITC, 30°C) was -8.68 kcal/mol, the “ΔH (change in enthalpy)” value ([2]; ITC, 30°C) was 1.66 ± 0.0263 kcal/mol and the “N (number of binding site)” value [2, 10] was 1.02 ± 0.08. For the same compound, the Kd ([2]; ITC, 30°C, 50 mM Tris-HCl pH 8.0, 100 mM NaCl, single-site model, listed as cellotetraose, read-out: KD (dissociation constant)) was 562 nM and the Kd [2, 11] was 560 ± 80 nM.

For `OC[C@H]1O[C@@H](O[C@H]2[C@H](O)[C@@H](O)[C@H](O[C@H]3[C@H](O)[C@@H](O)C(O)O[C@@H]3CO)O[C@@H]2CO)[C@H](O)[C@@H](O)[C@@H]1O` (some centres unmarked) [Cellotriose, cellotriose], the “binding to CbpA in NMR titration (HSQC peak shifts)” value [1] was “not”, the Ka ([2]; ITC, 30°C) was 8.55 ± 1.69 ×10^5 · M^−1 and the TΔS ([2]; ITC, 30°C) was 10.7 kcal/mol. The ΔG ([2]; ITC, 30°C) was -8.25 kcal/mol, the “ΔH (change in enthalpy)” value ([2]; ITC, 30°C) was 2.49 ± 0.072 kcal/mol and the “N (number of binding site)” value [2, 10] was 0.97 ± 0.02. The Kd [2, 11] was 1170 ± 230 nM and the “binding to CbpB in NMR titration (HSQC peak shifts)” value [4] was “significant peak shifts”.

In the case of `OC[C@H]1OC(O)[C@H](O)[C@@H](O)[C@@H]1O` (some centres unmarked) [Glucose, glucose], the Kd [5] is reported as 240000 ± 95000 nM, the “binding to CbpA in ITC, in words” value ([5]; ITC) is reported as “remarkably weak” and the Ka ([5]; ITC, 30°C) is reported as 0.042 ± 0.016 ×10^5 · M^−1. The TΔS ([5]; ITC, 30°C) was 5.43 kcal/mol, the ΔG ([5]; ITC, 30°C) was -5.02 kcal/mol and the “ΔH (change in enthalpy)” value ([5]; ITC, 30°C) was 0.409 ± 0.086 kcal/mol. For the same compound, the “N (number of binding site)” value [5, 10] was 1.06 ± 0.07, the “binding to CbpC in previous ITC experiments” value [6] was “can bind” and the “binding to CbpA in NMR titration (HSQC peak shifts)” value [1] was “binds; also recorded: significant peak shifts”. The “interaction with CbpB in ITC, in words” value ([2]; ITC, 30°C) was “could not be fitted to obtain reasonable N and KD values” and the “binding to CbpB in NMR titration (HSQC peak shifts)” value [4] was “not”.

In the case of `OC[C@H]1O[C@@H](O[C@H]2[C@H](O)[C@@H](CO)OC(O)[C@@H]2O)[C@H](O)[C@@H](O)[C@@H]1O` (some centres unmarked) [Laminaribiose, laminaribiose], the “binding to Lbp in ITC assays” value [7] is listed as “shown to bind”, the Ka ([2]; ITC, 30°C) is listed as 0.93 ± 0.25 ×10^5 · M^−1 and the TΔS ([2]; ITC, 30°C) is listed as 7.98 kcal/mol. For the same compound, the “interaction with CbpB in ITC, in words” value ([2]; ITC, 30°C) was “lower affinity compared to cellobiose”, the ΔG ([2]; ITC, 30°C) was -6.91 kcal/mol and the “ΔH (change in enthalpy)” value ([2]; ITC, 30°C) was 1.09 ± 0.1 kcal/mol. The “N (number of binding site)” value [2, 10] was 0.98 ± 0.04 and the Kd [2, 11] was 10700 ± 2800 nM.

In the case of `O=C[C@H](O)[C@@H](O)[C@H](O)CO` [xylose], the “interaction with CbpD in ITC” value [8] is reported as “could not detect any xylose-binding ability” and the “interaction with CbpD in NMR titration” value [9] is reported as “could not detect any xylose-binding ability”.
